According to patent US20190330197A1, “SUBSTITUTED NAPHTHALENE DIIMIDES AND THEIR USE” (UCL Business PLC, priority 2015, published 2019):

How the values were obtained:
[1] = test system: human telomeric (F21T) G-quadruplex DNA; test: FRET quadruplex stabilisation assay, F21T; assay type: binding; conditions: compound at 1 μM, 60 mM potassium cacodylate buffer pH 7.4
Text: (§1) The ability of the naphthalene diimide compounds to stabilize quadruplex DNA sequences was investigated using a fluorescence resonance energy transfer (FRET) assay modified to be used as a high-throughput screen in a 96-well format. Several quadruplex sequences were studied (including the human telomeric G-quadruplex DNA sequence 5′-FAM-d(GGG[TTAGGG]3)-TAMRA-3′ and the duplex sequence 5′-FAM-d[…]-HEG-[…]-TAMRA-3′ (HEG linker: [(—CH2—CH2—O—)6.
(§2) The labelled oligonucleotides have attached to them the donor fluorophore FAM: 6-carboxyfluorescein and the acceptor fluorophore TAMRA: 6-carboxytetramethylrhodamine. The FRET probe sequences were diluted from stock to the correct concentration (400 nM) in a 60 mM potassium cacodylate buffer (pH 7.4) and then annealed by heating to 85° C. for 10 min, followed by cooling to room temperature in the heating block. The compound was stored as a 10 mM stock solution in DMSO; final solutions (at 2× concentration) were prepared using 10 mM HCl in the initial 1:10 dilution, after which 60 mM potassium cacodylate buffer (pH 7.4) was used in all subsequent steps. The maximum HCl concentration in the reaction volume (at a ligand concentration of 20 μM) is thus 200 μM, well within the range of the buffer used. Relevant controls were also performed to check for interference with the assay. 96-Well plates (MJ Research, Waltham, Mass.) were prepared by aliquoting 50 μl of the annealed DNA into each well, followed by 50 μl of the compound solutions. Measurements were made on a DNA Engine Opticon (MJ Research) with excitation at 450-495 nm and detection at 515-545 nm. Fluorescence readings were taken at intervals of 0.5° C. in the range 30-100° C., with a constant temperature being maintained for 30 s prior to each reading to ensure a stable value. Final analysis of the data was carried out using a script written in the program Origin 7.0 (OriginLab Corp., Northampton, Mass.). The advanced curve-fitting function in Origin 7.0 was used for calculation of ΔTm values. All determinations were performed in triplicate or better. Esds in ΔTm are ±0.1° C.

[2] = test system: Hsp90A sequence from the HSP90 promoter; test: FRET quadruplex stabilisation assay, Hsp90A; assay type: binding; conditions: compound at 1 μM, 60 mM potassium cacodylate buffer pH 7.4
Text: as §1, §2

[3] = test system: Hsp90B sequence from the HSP90 promoter; test: FRET quadruplex stabilisation assay, Hsp90B; assay type: binding; conditions: compound at 1 μM, 60 mM potassium cacodylate buffer pH 7.4
Text: as §1, §2

[4] = test system: Kras21 sequence from the promoter region of the kras gene; test: FRET quadruplex stabilisation assay, Kras21; assay type: binding; conditions: compound at 1 μM, 60 mM potassium cacodylate buffer pH 7.4
Text: as §1, §2

[5] = test system: Kras32 sequence from the promoter region of the kras gene; test: FRET quadruplex stabilisation assay, Kras32; assay type: binding; conditions: compound at 1 μM, 60 mM potassium cacodylate buffer pH 7.4
Text: as §1, §2

[6] = test system: Bcl-2 sequence from the promoter region of the bcl-2 gene; test: FRET quadruplex stabilisation assay, Bcl-2; assay type: binding; conditions: compound at 1 μM, 60 mM potassium cacodylate buffer pH 7.4
Text: as §1, §2

[7] = test system: Tloop (representing duplex DNA); test: FRET assay, Tloop duplex DNA; assay type: binding; conditions: compound at 1 μM, 60 mM potassium cacodylate buffer pH 7.4
Text: as §1, §2

[8] = test system: A549 (lung cancer) cells; test: SRB growth inhibition, A549; assay type: cell-based, human; conditions: 96 hr, SRB assay; read-out: short-term 96 hr IC50 A549
Method: (§3) Human cancer cell lines and the somatic human cell line WI-38 (lung fibroblast) were purchased from the American Type Culture Collection. Cell lines were maintained in appropriate medium supplemented with 10% foetal bovine serum (Invitrogen, UK), 2 mM L-glutamine (Invitrogen, Netherlands), and other components as specified by the suppliers. Cell lines were maintained at 37° C., 5% CO2 and routinely passaged. Drugs were dissolved in DMSO and filtered through 0.22 μm pore-size filter units before addition to cell line appropriate media. Cellular growth inhibition was measured using the sulforhodamine B (SRB) assay in 96 well plates. Fifty percent inhibitory concentrations (IC50) were determined by taking the mean absorbance at 540 nm for each drug concentration expressed as a percentage of the absorbance of untreated control wells.

[9] = test system: MCF7 (breast) cells; test: SRB growth inhibition, MCF7; assay type: cell-based, human; conditions: 96 hr, SRB assay; read-out: short-term 96 hr IC50 MCF7
Method: as §3

[10] = test system: Mia-PaCa2 (pancreatic cancer) cells; test: SRB growth inhibition, MiaPaCa2; assay type: cell-based, human; conditions: 96 hr, SRB assay; read-out: short-term 96 hr IC50 MiaPaCa2
Method: as §3

[11] = test system: Panc1 (pancreatic cancer) cells; test: SRB growth inhibition, Panc1; assay type: cell-based, human; conditions: 96 hr, SRB assay; read-out: short-term 96 hr IC50 Panc1
Method: as §3

[12] = test system: ALT (Alternative Lengthening of Telomeres) cell line; test: SRB growth inhibition, ALT; assay type: cell-based, human; conditions: 96 hr, SRB assay; read-out: short-term 96 hr IC50 ALT
Method: as §3

[13] = test system: WI38 (lung fibroblast) cells; test: SRB growth inhibition, WI38; assay type: cell-based, human; conditions: 96 hr, SRB assay; read-out: short-term 96 hr IC50 WI38
Method: as §3

Structure (SMILES) | ΔTm F21T [1] [°C] | ΔTm Hsp90A [2] [°C] | ΔTm Hsp90B [3] [°C] | ΔTm Kras21 [4] [°C] | ΔTm Kras32 [5] [°C] | ΔTm Bcl-2 [6] [°C] | ΔTm Tloop [7] [°C] | IC50 [8] [nM] | IC50 [9] [nM] | IC50 [10] [nM] | IC50 [11] [nM] | IC50 [12] [nM] | IC50 [13] [nM]
CN1CCN(CCCNc2cc3c4c(ccc5c4c2C(=O)N(CCCN2CCOCC2)C5=O)C(=O)N(CCCN2CCOCC2)C3=O)CC1 [Compound 4a, 4-((3-(4-methylpiperazin-1-yl)propyl)amino)-2,7-bis(3-morpholinopropyl)benzo[Imn][3,8]phenanthroline-1,3,6,8(2H,7H)-tetraone] | 14.3 | 19.8 | 16.5 | 9.8 | 6.1 | 15.8 | 0.8 | 67 | 357 | 59 | 45 | 224 | 1830
CN1CCN(CCNc2cc3c4c(ccc5c4c2C(=O)N(CCCN2CCOCC2)C5=O)C(=O)N(CCCN2CCOCC2)C3=O)CC1 [Compound 4b, 4-((2-(4-methylpiperazin-1-yl)ethyl)amino)-2,7-bis(3-morpholinopropyl)benzo[Imn][3,8]phenanthroline-1,3,6,8(2H,7H)-tetraone] | 12.3 | 18.1 | 15.0 | 11.0 | 6.1 | 15.1 | 0.4 | 86 | 316 | 48 | 46 | 85 | 1490
O=C1c2ccc3c4c(c(NCCc5ccccn5)cc(c24)C(=O)N1CCCN1CCOCC1)C(=O)N(CCCN1CCOCC1)C3=O [Compound 4d, 2,7-bis(3-morpholinopropyl)-4-((2-(pyridin-2-yl)ethyl)amino)benzo[Imn][3,8]phenanthroline-1,3,6,8(2H,7H)-tetraone] | <2 | 2.5 | <2 | 3.0 | 1.5 | 2.8 | 0 | 130 | 1070 | 220 | 340 | 1290 | 2240
O=C1c2ccc3c4c(c(NCCCCN5CCCC5)cc(c24)C(=O)N1CCCN1CCOCC1)C(=O)N(CCCN1CCOCC1)C3=O [Compound 4e, 2,7-bis(3-morpholinopropyl)-4-((4-(pyrrolidin-1-yl)butyl)amino)benzo[Imn][3,8]phenanthroline-1,3,6,8(2H,7H)-tetraone] | 15.9 | 20.6 | 16.9 | 11.7 | 6.6 | 16.1 | 0.2 | 26 | 222 | 36 | 33 | 89 | 1220
O=C1c2ccc3c4c(c(NCCN5CCCCC5)cc(c24)C(=O)N1CCCN1CCOCC1)C(=O)N(CCCN1CCOCC1)C3=O [Compound 4f, 2,7-bis(3-morpholinopropyl)-4-((2-(piperidin-1-yl)ethyl)amino)benzo[Imn][3,8]phenanthroline-1,3,6,8(2H,7H)-tetraone] | 9.8 | 9.1 | 8.7 | 4.8 | 2.2 | 5.9 | 0.6 | 198 | 1110 | 108 | 84 | 535 | 5330
O=C1c2ccc3c4c(c(NCCN5CCOCC5)cc(c24)C(=O)N1CCCN1CCOCC1)C(=O)N(CCCN1CCOCC1)C3=O [Compound 4g, 4-((2-morpholinoethyl)amino)-2,7-bis(3-morpholinopropyl)benzo[Imn][3,8]phenanthroline-1,3,6,8(2H,7H)-tetraone] | 6.0 | 11.0 | 9.4 | 2.4 | 1.5 | 5.8 | 1.5 | 2180 | > 25000 | 206 | 220 | 10900 | 17600
O=C1c2ccc3c4c(c(NCC5CCCO5)cc(c24)C(=O)N1CCCN1CCOCC1)C(=O)N(CCCN1CCOCC1)C3=O (stereo not shown) [Compound 4h, 4-((tetrahydrofurylmethyl)amino)-2,7-bis(3-morpholinopropyl) benzo[Imn][3,8]phenanthroline-1,3,6,8(2H,7H)-tetraone] | 1.4 | 3.9 | 6.8 | 3.4 | 1.2 | 4.2 | 0 | 146 | 1030 | 139 | 808 | 710 | 1880
CCN(CC)CCNc1cc2c3c(ccc4c3c1C(=O)N(CCCN1CCOCC1)C4=O)C(=O)N(CCCN1CCOCC1)C2=O [Compound 4i, 4-((2-(diethylamino)ethyl)amino)-2,7-bis(3-morpholinopropyl)benzo[Imn][3,8]phenanthroline-1,3,6,8(2H,7H)-tetraone] | <2 | 2.7 | 4.5 | 0.7 | 0.2 | 2.4 | 0 | 825 | 3330 | 1080 | 909 | 2670 | 5530
O=C1c2ccc3c4c(c(NCCc5ccc(O)cc5)cc(c24)C(=O)N1CCCN1CCOCC1)C(=O)N(CCCN1CCOCC1)C3=O [Compound 4j, 4-((4-hydroxyphenethyl)amino)-2,7-bis(3-morpholinopropyl)benzo[Imn][3,8]phenanthroline-1,3,6,8(2H,7H)-tetraone] | 9 | 15.7 | 13.8 | 6.1 | 3.0 | 10.0 | 0.1 | 92 | 1540 | 59 | 163 | 451 | 1650
CN1CCN(CCCNc2cc3c4c(c(NCCCN5CCN(C)CC5)cc5c4c2C(=O)N(CCCN2CCOCC2)C5=O)C(=O)N(CCCN2CCOCC2)C3=O)CC1 [MM41, 4,9-bis((3-(4-methylpiperazine-1-yl)-propyl)amino)-2,7-bis(3-morpholinopropyl)benzo[Imn][3,8]phenanthroline-1,3,6,8(2H,7H)-tetraone, reference compound] | 26.6 | 33.1 | 28.6 | 22.5 | 19.8 | 26.4 | 4.9 | 19 | 70 | 11 | 3 | 63 | 230
